Values of other authors in PubChem BioAssay AID1259409 (Chemical Carcinogenesis Research Information System (CCRIS), 2018).
Several values for one entry are separate records, joined by “and”; a condition that tells them apart may be missing. Equal entries are not always repeated.

Test system: rodent chemically induced tumor inhibition, incidence and multiplicity
Assay: CCRIS tumor inhibitor studies

C[C@]12CC[C@]3(C1)[C@H](CC2=O)C[C@@H](OC(=O)c1ccccc1)[C@H]1[C@](C)(C(=O)O)CCC[C@@]13C
tumour outcome (control, treated, inhibition, significance) (Carcinogen: 7,12-DIMETHYLBENZ[A]ANTHRACENE, 57-97-6, Dose [Inhibitor]: 0, 162 NMOL 2/WK APPLIED SIMULTANEOUSLY WITH EACH PROMOTER DOSE FOR 18 WK (STUDY DURATION: 18 WK), Route [Inhibitor]: DERMAL, Species: MOUSE, Strain/Sex: ICR/FEMALE, Target Tissue: Type of Lesion: SKIN: TUMOR, Dose [Carcinogen]: 100 UG IN 100 µL ACETONE ONCE, Promoter: 12-O-TETRADECANOYLPHORBOL-13-ACETATE, 16561-29-8): 90%, 50%, 44%, not significant

CS(=O)(=O)Nc1ccc([N+](=O)[O-])cc1OC1CCCCC1
tumour outcome (control, treated, inhibition, significance) (Carcinogen: 4-METHYLNITROSAMINO)-1-(3-PYRIDYL)-1-BUTANONE, 64091-91-4, Dose [Inhibitor]: 0, 7 MMOL/KG BW/D IN DIET FOR DURATION OF STUDY BEGINNING 2 WK PRIOR TO CARCINOGEN TREATMENT (STUDY DURATION: 25 WK), Route [Inhibitor]: ORAL, Species: MOUSE, Strain/Sex: STRAIN-A/FEMALE, Target Tissue: Type of Lesion: LUNG: TUMOR, Dose [Carcinogen]: 2.2 MMOL/KG BW (TOTAL DOSE) ADMINISTERED IN DRINKING WATER FOR 7 WK, Promoter: NONE USED): 29/29 (100%), 25/25 (100%), 0%, not significant

C=C(C)C1CC=C(CO)CC1 (stereo not drawn)
tumour outcome (control, treated, inhibition, significance) (Carcinogen: 4-(METHYLNITROSAMINO)-1-(3-PYRIDYL)-1-BUTANONE, 64091-91-4, Dose [Inhibitor]: 0, 75 MG/KG BW 3/WK FOR 22 WK BEGINNING 1 WK PRIOR TO CARCINOGEN TREATMENT (STUDY DURATION: 23 WK), Route [Inhibitor]: INTRAPERITONEAL, Species: MOUSE, Strain/Sex: C3AF1/MALE, Target Tissue: Type of Lesion: LUNG: TUMOR, Dose [Carcinogen]: 100 MG/KG BW 1/WK FOR 2 WK, Promoter: NONE USED): 100%, 79%, 21%, p<0.005 | tumour outcome (control, treated, inhibition, significance) (Carcinogen: AZOXYMETHANE [25843-45-2], Dose [Inhibitor]: 1 G/KG IN DIET FOR 55 WK BEGINNING 2 WK PRIOR TO FIRST CARCINOGEN DOSE (STUDY DURATION: 55 WK), Route [Inhibitor]: ORAL, Species: RAT, Strain/Sex: F344/MALE, Target Tissue: Type of Lesion: COLON: ADENOCARCINOMA, Dose [Carcinogen]: 15 MG/KG BW 1/WK FOR 2 WK (STUDY DURATION: 55 WK), Promoter: NONE): 78%, 64%, 18%, not significant and 78%, 56%, 29%, p<0.05 | tumour outcome (control, treated, inhibition, significance) (Carcinogen: AZOXYMETHANE [25843-45-2], Dose [Inhibitor]: 1 G/KG IN DIET FOR 55 WK BEGINNING 2 WK PRIOR TO FIRST CARCINOGEN DOSE (STUDY DURATION: 55 WK), Route [Inhibitor]: ORAL, Species: RAT, Strain/Sex: F344/MALE, Target Tissue: Type of Lesion: SMALL INTESTINE: ADENOCARCINOMA, Dose [Carcinogen]: 15 MG/KG BW 1/WK FOR 2 WK (STUDY DURATION: 55 WK), Promoter: NONE): 31%, 28%, 9%, not significant | tumour outcome (control, treated, inhibition, significance) (Carcinogen: AZOXYMETHANE [25843-45-2], Dose [Inhibitor]: 2 G/KG IN DIET FOR 55 WK BEGINNING 2 WK PRIOR TO FIRST CARCINOGEN DOSE (STUDY DURATION: 55 WK), Route [Inhibitor]: ORAL, Species: RAT, Strain/Sex: F344/MALE, Target Tissue: Type of Lesion: SMALL INTESTINE: ADENOCARCINOMA, Dose [Carcinogen]: 15 MG/KG BW 1X/WK FOR 2 WK (STUDY DURATION: 55 WK), Promoter: NONE): 31%, 11%, 64%, p<0.05

CN(C)C(=O)COC(=O)Cc1ccc(OC(=O)c2ccc(N=C(N)N)cc2)cc1
tumour outcome (control, treated, inhibition, significance) (Carcinogen: N-NITROSOBIS(2-OXOPROPYL)AMINE, 60599-38-4, Dose [Inhibitor]: 0, 500 PPM IN DIET FOR 5 WK DURING CARCINOGEN TREATMENT (STUDY DURATION: 30 WK), Route [Inhibitor]: ORAL, Species: HAMSTER, Strain/Sex: SYRIAN/FEMALE, Target Tissue: Type of Lesion: PANCREAS: ADENOCARCINOMA, Dose [Carcinogen]: 10 MG/KG 1/WK FOR 5 WK, Promoter: NONE USED): 24/30 (80%), 18/32 (56%), 30%, p<0.05

CCCC(=O)O
tumour outcome (control, treated, inhibition, significance) (Carcinogen: 7,12-DIMETHYLBENZ[A]ANTHRACENE, 57-97-6, Dose [Inhibitor]: 0, 6% IN BASAL DIET BEGINNING 1 WK PRIOR TO CARCINOGEN DOSE AND CONTINUING FOR DURATION OF STUDY (STUDY DURATION: >15 WK, Route [Inhibitor]: ORAL, Species: RAT, Strain/Sex: SPRAGUE-DAWLEY/FEMALE, Target Tissue: Type of Lesion: MAMMARY GLAND: ADENOCARCINOMA, Dose [Carcinogen]: 5 MG IN 0.5 ML CORN OIL ONCE, Promoter: NONE USED): 10/26 (38%), 4/20 (20%), 47%, not significant | tumour outcome (control, treated, inhibition, significance) (Carcinogen: 7,12-DIMETHYLBENZ[A]ANTHRACENE, 57-97-6, Dose [Inhibitor]: 0, 6% IN BASAL DIET BEGINNING 1 WK PRIOR TO CARCINOGEN DOSE AND CONTINUING FOR DURATION OF STUDY (STUDY DURATION: >15 WK, Route [Inhibitor]: ORAL, Species: RAT, Strain/Sex: SPRAGUE-DAWLEY/FEMALE, Target Tissue: Type of Lesion: MAMMARY GLAND: CARCINOMA, Dose [Carcinogen]: 5 MG IN 0.5 ML CORN OIL ONCE, Promoter: NONE USED): 11/26 (42%), 8/20 (40%), 5%, not significant | tumour outcome (control, treated, inhibition, significance) (Carcinogen: 7,12-DIMETHYLBENZ[A]ANTHRACENE, 57-97-6, Dose [Inhibitor]: 0, 6% IN DIET CONTAINING 20% SAFFLOWER MARGARINE BEGINNING 1 WK PRIOR TO CARCINOGEN DOSE AND CONTINUING FOR DURATION OF, Route [Inhibitor]: ORAL, Species: RAT, Strain/Sex: SPRAGUE-DAWLEY/FEMALE, Target Tissue: Type of Lesion: MAMMARY GLAND: ADENOCARCINOMA, Dose [Carcinogen]: 5 MG IN 0.5 ML CORN OIL ONCE, Promoter: NONE USED): 14/19 (74%), 8/20 (40%), 46%, p<0.05 | tumour outcome (control, treated, inhibition, significance) (Carcinogen: 7,12-DIMETHYLBENZ[A]ANTHRACENE, 57-97-6, Dose [Inhibitor]: 0, 6% IN DIET CONTAINING 20% SAFFLOWER MARGARINE BEGINNING 1 WK PRIOR TO CARCINOGEN DOSE AND CONTINUING FOR DURATION OF, Route [Inhibitor]: ORAL, Species: RAT, Strain/Sex: SPRAGUE-DAWLEY/FEMALE, Target Tissue: Type of Lesion: MAMMARY GLAND: CARCINOMA, Dose [Carcinogen]: 5 MG IN 0.5 ML CORN OIL ONCE, Promoter: NONE USED): 16/19 (84%), 11/20 (55%), 35%, p<0.05

CCCCOC(=O)c1ccccc1C(=O)OCc1ccccc1
tumour outcome (control, treated, inhibition, significance) (Carcinogen: 7,12-DIMETHYLBENZ[A]ANTHRACENE, 57-97-6, Dose [Inhibitor]: 0, 250 MG/KG IN CORN OIL 1/D FOR 7 D PRIOR TO CARCINOGEN DOSE (STUDY DURATION: 16 WK), Route [Inhibitor]: GAVAGE, Species: RAT, Strain/Sex: ?/FEMALE, Target Tissue: Type of Lesion: MAMMARY GLAND: TUMOR, Dose [Carcinogen]: 31 MG/KG IN CORN OIL ONCE, Promoter: NONE USED): 82%, 52%, 37%, p<0.05 | tumour outcome (control, treated, inhibition, significance) (Carcinogen: 7,12-DIMETHYLBENZ[A]ANTHRACENE, 57-97-6, Dose [Inhibitor]: 0, 500 MG/KG IN CORN OIL 1/D FOR 7 D PRIOR TO CARCINOGEN DOSE (STUDY DURATION: 16 WK), Route [Inhibitor]: GAVAGE, Species: RAT, Strain/Sex: ?/FEMALE, Target Tissue: Type of Lesion: MAMMARY GLAND: TUMOR, Dose [Carcinogen]: 31 MG/KG IN CORN OIL ONCE, Promoter: NONE USED): 82%, 52%, 37%, p<0.05
